Data taken from patent publication US20030228572A1, “Method of determining the efficacy of a compound in treating microbial infection” (priority 1998, published 2003).

Assays:
[1] = tested on: S. aureus ATCC 29213 (OSSA); test: Impedance growth curves (detection time, DT) on Mueller-Hinton agar with oxacillin, BACTOMETER M-128; type: cell-based; conditions: for DT (detection time): Mueller-Hinton agar
Experimental: (§1) Mueller-Hinton agar containing different concentrations of oxacillin (0 to 128 μg) was prepared by two-fold serial dilutions, and 0.6 ml of the medium was dispensed into the module wells of […]-128 (bioMerieux Vitek, Hazelwood, Mo.). The three ATCC S. aureus strains were used to observe the effect of oxacillin concentration on the impedance curves during bacterial growth. These strains were subcultured on TSA for 18 to 24 hours (“h”) at 37° C. One single colony on TSA was inoculated into 10 ml of TSB, incubated at 37° C. for several hours, and diluted with 0.1% peptone water to a turbidity of 0.5 McFarland. An aliquot (0.1 ml) of the bacterial suspensions was inoculated into the module well containing Mueller-Hinton agar supplemented with oxacillin. The inoculated modules (each module contains 16 wells) were inserted into the incubator of BACTOMETER set at 37° C. The impedance change in each well was continuously monitored and recorded by the instrument at 6-minute (“min”) intervals for 24 h, and results were obtained graphically as impedance growth curves. DT in hours for each well was automatically determined by the instrument software when three consecutive readings of impedance change exceeded the default value in the instrument, or was manually determined by locating the inflection point (where an accelerating change of impedance was evident) on the impedance curve.

[2] = tested on: S. aureus ATCC 33591 (ORSA); test: as above; type: cell-based; conditions: for DT (detection time): Mueller-Hinton agar, without oxacillin 5.3 h
Experimental: as §1

[3] = tested on: S. aureus ATCC 33592 (ORSA); test: as above; type: cell-based; conditions: for DT (detection time): Mueller-Hinton agar, without oxacillin 5.3 h
Experimental: as §1

[4] = tested on: clinical S. aureus isolates, ORSA; test: Oxacillin susceptibility test of clinical isolates by the impedance method; type: cell-based; conditions: for DT in h on Mueller-Hinton agar With Oxacillin (2 μg/ml), mean ± standard deviation: without oxacillin 5.7 ± 0.6 h
Experimental: (§2) Susceptibility tests of the 235 clinical isolates of S. aureus were performed in a similar way to that used for the ATCC strains, except that only one concentration (2 μg/ml) of oxacillin in Mueller-Hinton agar was used. A negative control (Mueller-Hinton agar without oxacillin) was included for each strain tested. A strain was designated as OSSA if, in the presence of the antibiotic, there was no DT obtained within an incubation period of 24 h. A strain was designated as ORSA if, in the presence of the antibiotic, the DT was not affected or the delay in DT was less than 3 h as compared to the negative control. S. aureus ATCC 29213 (OSSA) and ATCC 33592 (ORSA) were run at the same time as controls. Strains showing discrepant results were reconfirmed by the oxacillin screen agar (Becton Dickinson Microbiology Systems, Cockysville, Md.).

[5] = tested on: clinical S. aureus isolates, OSSA; test: as above; type: cell-based
Experimental: as §2

[6] = tested on: blood cultures containing ORSA; test: Direct detection in blood cultures by the impedance method; type: cell-based, S. aureus; conditions: oxacillin 2 μg/ml; 36 of 38 vials containing ORSA
Experimental: (§3) Blood specimens were collected at the National Cheng Kung University Hospital during a period in 1996. The BACTEC NR6A and NR7A vials (containing about 30 ml of liquid media; Becton Dickinson Microbiology Systems) were normally inoculated with 3 to 5 ml of blood from the patients, inserted into a BACTEC NR660 instrument (Becton Dickinson Microbiology Systems), and incubated at 37° C. A small aliquot (0.1 to 0.2 ml) of the culture broth was drawn from the vials showing growth of gram-positive cocci (as determined by Gram stain), heated in a boiling water bath for 15 min, and tested for thermonuclease activities on slides coated with toluidine blue-DNA agar (Bennett et al., Staphylococcus aureus, pp. 161-166, In: Bacteriological Analytical Manual, 7th ed. Association of Official Analytical Chemists International, Arlington, Va., 1992). A positive thermonuclease reaction was the development of a pink halo extending at least 1 mm from the periphery of the reaction well. […] The modules were incubated at 37° C. and DTs of the wells were automatically determined by the instrument or by manual inspection of the impedance curves. A vial was designated as ORSA or OSSA positive according to the same parameters set for pure stock cultures. […]

[7] = tested on: blood cultures containing OSSA; test: as above; type: cell-based, S. aureus; conditions: oxacillin 2 μg/ml; 57 of 58 blood cultures containing OSSA; within an incubation period of 24 h
Experimental: as §3

[8] = oxacillin concentration as high as 128 μg/ml
[9] = oxacillin concentration as high as 64 yg/ml

## Cc1onc(-c2ccccc2)c1C(=O)N[C@@H]1C(=O)N2[C@@H]1SC(C)(C)[C@@H]2C(=O)O [oxacillin]
[1]; oxacillin 0.063 μg per ml, without oxacillin 4.0 h
  DT (detection time): 4.1 h
[1]; oxacillin 0.063 μg/ml versus no oxacillin
  increase in DT: 0.1 h
[1]; oxacillin 0.125 μg per ml, without oxacillin 4.0 h
  DT (detection time): 4.1 h
[1]; oxacillin 0.125 μg/ml versus no oxacillin
  increase in DT: 0.1 h
[1]; oxacillin 0.25 μg per ml, within 16 hours
  DT (detection time): no DT
[1]; oxacillin 0.25 μg/ml
  growth: almost completely inhibited
[2]; oxacillin 32 μg per ml
  DT (detection time): 6.2 h
[2]; oxacillin 64 μg per ml
  DT (detection time): 6.8 h
[2]; oxacillin 128 μg per ml
  DT (detection time): 12.1 h
[2]; [8]
  growth: not inhibited to a large extent
[2]; [9]
  growth: only slightly inhibited
[3]; oxacillin 32 μg per ml
  DT (detection time): 6.3 h
[3]; oxacillin 64 μg per ml
  DT (detection time): 7.0 h
[3]; oxacillin 128 μg per ml
  DT (detection time): 9.3 h
[3]; [8]
  growth: not inhibited to a large extent
[3]; [9]
  growth: only slightly inhibited
[4]; 141 ORSA strains, range over strains
  DT in h (range) on Mueller-Hinton agar With Oxacillin (2 μg/ml): 4.7 to 9.1 h
[4]; 141 ORSA strains
  DT in h on Mueller-Hinton agar With Oxacillin (2 μg/ml), mean ± standard deviation: 6.0 ± 0.7 h
[4]; 141 ORSA strains, listed as Oxacillin
  DT in h on Mueller-Hinton agar With Oxacillin (2 μg/ml), mean ± standard deviation: 6.0 ± 0.7 h
[4]; oxacillin 2 μg/ml, 141 of 149 ORSA strains (DTs equal to controls or delayed)
  delay in DTs compared to negative controls: less than 3 h
[4]; oxacillin 2 μg/ml, false-negative strain no. 127
  DT behind the negative control: 17 h
[4]; oxacillin 2 μg/ml, false-negative strain no. 127, negative control DT=5.7 h
  DT: 22.7 h
[4]; oxacillin 2 μg/ml, seven of the eight false-negative strains, within an incubation period of 24 h
  DT: no DT
[5]; 84 correctly identified of 86 OSSA strains, 24 h incubation
  DT in h (range) on Mueller-Hinton agar With Oxacillin (2 μg/ml): —^c (—, DT was not found within an incubation period of 24 h.)
[5]; oxacillin 2 μg/ml, 84 of the 86 OSSA strains, within an incubation period of 24 h
  DT: no DT
[6]
  average DT: 5.5 h
[7]
  DT: no DTs
